Assay type in all cases: cell-based
The target in experiment [1] is protein kinases (human kinome) (Homo sapiens, UniProt Q14289). As to conditions: for logFC: PTK2B (Q14289-1) protein abundance, degrader vs DMSO, down; for logFC PTK2B: accession Q14289-1, direction of change down.
For experiment [2], the target named is protein kinases (human kinome) (Homo sapiens, UniProt O43683). As to conditions: for logFC: BUB1 (O43683); for logFC BUB1 (O43683): direction down.
For experiment [3], the target named is protein kinases (human kinome) (Homo sapiens, UniProt Q9HBH9). The settings on record: for logFC MKNK2 (Q9HBH9-1): direction down; for logFC: MKNK2 (Q9HBH9-1).
Experiment [4] concerns the target protein kinases (human kinome) (Homo sapiens, UniProt Q8TDR2).
Experiment [5] addresses protein kinases (human kinome) (Homo sapiens, UniProt P50613). The settings on record: for logFC: CDK7 (P50613) protein abundance, degrader vs DMSO, down; for logFC CDK7: CDK7 P50613.
Experiment [6] deals with protein kinases (human kinome) (Homo sapiens, UniProt Q00537). The settings on record: for logFC of CDK17: Accession Q00537; for logFC CDK17 (Q00537): direction of change down.
The target in experiment [7] is protein kinases (human kinome) (Homo sapiens, UniProt Q14004). As to conditions: for logFC CDK13: Accession Q14004-1.
Experiment [8] has as its target protein kinases (human kinome) (Homo sapiens, UniProt Q15118). As to conditions: PDK1 Q15118; experiment wp081.
Experiment [9] deals with protein kinases (human kinome) (Homo sapiens, UniProt Q00535). The settings on record: for logFC of CDK5: Accession Q00535.
Experiment [10] addresses protein kinases (human kinome) (Homo sapiens, UniProt Q9NYV4).

Experimental findings from US20240269139A1, “COMPOUNDS FOR TARGETED PROTEIN DEGRADATION OF KINASES” (DANA-FARBER CANCER INSTITUTE, INC., priority 2020, published 2024) are described below.

Where two headings read alike, the source gives them in different places.

protein kinases (human kinome) (Homo sapiens, UniProt P50613), sequence (P50613 whole entry): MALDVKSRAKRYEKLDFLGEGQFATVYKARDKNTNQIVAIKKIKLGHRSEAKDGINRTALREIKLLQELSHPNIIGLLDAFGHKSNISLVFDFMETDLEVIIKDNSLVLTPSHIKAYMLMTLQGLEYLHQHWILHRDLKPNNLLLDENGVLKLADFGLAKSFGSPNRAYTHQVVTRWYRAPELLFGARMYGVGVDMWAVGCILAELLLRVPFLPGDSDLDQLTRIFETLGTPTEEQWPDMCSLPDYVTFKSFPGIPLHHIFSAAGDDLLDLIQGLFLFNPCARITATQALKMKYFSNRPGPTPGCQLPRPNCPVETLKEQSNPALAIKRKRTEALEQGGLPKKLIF
protein kinases (human kinome) (Homo sapiens, UniProt Q8TDR2), sequence (Q8TDR2 whole entry): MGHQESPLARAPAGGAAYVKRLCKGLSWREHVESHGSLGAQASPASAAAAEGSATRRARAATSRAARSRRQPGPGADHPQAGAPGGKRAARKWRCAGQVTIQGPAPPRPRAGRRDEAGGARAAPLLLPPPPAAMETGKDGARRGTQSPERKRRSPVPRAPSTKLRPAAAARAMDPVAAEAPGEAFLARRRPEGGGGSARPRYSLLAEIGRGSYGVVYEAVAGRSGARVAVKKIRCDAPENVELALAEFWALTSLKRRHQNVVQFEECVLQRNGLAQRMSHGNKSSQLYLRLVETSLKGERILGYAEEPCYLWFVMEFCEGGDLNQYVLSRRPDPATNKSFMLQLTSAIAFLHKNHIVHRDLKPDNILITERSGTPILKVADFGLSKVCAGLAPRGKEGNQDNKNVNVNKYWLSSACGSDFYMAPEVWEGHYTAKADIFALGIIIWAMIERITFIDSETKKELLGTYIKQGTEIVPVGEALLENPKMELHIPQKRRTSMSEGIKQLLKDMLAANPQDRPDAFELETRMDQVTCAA
protein kinases (human kinome) (Homo sapiens, UniProt Q00535), sequence (Q00535 whole entry): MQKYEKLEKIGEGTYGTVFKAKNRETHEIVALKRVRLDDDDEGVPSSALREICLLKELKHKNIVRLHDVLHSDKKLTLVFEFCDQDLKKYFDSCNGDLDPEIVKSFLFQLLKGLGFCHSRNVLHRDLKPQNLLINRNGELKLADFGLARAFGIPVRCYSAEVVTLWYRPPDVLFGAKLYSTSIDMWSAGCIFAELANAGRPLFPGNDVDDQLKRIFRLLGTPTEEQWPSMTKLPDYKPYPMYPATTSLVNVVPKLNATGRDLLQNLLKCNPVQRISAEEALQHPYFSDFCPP
protein kinases (human kinome) (Homo sapiens, UniProt Q00537), sequence (Q00537 whole entry): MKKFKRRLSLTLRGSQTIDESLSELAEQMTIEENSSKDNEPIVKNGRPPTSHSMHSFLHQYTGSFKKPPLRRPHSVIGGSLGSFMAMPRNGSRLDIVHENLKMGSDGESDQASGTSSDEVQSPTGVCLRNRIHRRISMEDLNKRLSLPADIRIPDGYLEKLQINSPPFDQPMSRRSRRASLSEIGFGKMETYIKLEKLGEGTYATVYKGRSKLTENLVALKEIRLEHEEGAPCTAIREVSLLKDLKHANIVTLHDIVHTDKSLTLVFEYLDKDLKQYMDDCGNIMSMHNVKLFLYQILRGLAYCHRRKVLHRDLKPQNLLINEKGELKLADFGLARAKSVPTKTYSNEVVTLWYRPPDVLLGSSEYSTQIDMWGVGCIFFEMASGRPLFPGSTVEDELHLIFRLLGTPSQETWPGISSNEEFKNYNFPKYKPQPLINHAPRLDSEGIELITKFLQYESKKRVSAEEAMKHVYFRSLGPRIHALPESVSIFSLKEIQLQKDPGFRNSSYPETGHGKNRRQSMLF
protein kinases (human kinome) (Homo sapiens, UniProt Q14004), sequence (Q14004 whole entry): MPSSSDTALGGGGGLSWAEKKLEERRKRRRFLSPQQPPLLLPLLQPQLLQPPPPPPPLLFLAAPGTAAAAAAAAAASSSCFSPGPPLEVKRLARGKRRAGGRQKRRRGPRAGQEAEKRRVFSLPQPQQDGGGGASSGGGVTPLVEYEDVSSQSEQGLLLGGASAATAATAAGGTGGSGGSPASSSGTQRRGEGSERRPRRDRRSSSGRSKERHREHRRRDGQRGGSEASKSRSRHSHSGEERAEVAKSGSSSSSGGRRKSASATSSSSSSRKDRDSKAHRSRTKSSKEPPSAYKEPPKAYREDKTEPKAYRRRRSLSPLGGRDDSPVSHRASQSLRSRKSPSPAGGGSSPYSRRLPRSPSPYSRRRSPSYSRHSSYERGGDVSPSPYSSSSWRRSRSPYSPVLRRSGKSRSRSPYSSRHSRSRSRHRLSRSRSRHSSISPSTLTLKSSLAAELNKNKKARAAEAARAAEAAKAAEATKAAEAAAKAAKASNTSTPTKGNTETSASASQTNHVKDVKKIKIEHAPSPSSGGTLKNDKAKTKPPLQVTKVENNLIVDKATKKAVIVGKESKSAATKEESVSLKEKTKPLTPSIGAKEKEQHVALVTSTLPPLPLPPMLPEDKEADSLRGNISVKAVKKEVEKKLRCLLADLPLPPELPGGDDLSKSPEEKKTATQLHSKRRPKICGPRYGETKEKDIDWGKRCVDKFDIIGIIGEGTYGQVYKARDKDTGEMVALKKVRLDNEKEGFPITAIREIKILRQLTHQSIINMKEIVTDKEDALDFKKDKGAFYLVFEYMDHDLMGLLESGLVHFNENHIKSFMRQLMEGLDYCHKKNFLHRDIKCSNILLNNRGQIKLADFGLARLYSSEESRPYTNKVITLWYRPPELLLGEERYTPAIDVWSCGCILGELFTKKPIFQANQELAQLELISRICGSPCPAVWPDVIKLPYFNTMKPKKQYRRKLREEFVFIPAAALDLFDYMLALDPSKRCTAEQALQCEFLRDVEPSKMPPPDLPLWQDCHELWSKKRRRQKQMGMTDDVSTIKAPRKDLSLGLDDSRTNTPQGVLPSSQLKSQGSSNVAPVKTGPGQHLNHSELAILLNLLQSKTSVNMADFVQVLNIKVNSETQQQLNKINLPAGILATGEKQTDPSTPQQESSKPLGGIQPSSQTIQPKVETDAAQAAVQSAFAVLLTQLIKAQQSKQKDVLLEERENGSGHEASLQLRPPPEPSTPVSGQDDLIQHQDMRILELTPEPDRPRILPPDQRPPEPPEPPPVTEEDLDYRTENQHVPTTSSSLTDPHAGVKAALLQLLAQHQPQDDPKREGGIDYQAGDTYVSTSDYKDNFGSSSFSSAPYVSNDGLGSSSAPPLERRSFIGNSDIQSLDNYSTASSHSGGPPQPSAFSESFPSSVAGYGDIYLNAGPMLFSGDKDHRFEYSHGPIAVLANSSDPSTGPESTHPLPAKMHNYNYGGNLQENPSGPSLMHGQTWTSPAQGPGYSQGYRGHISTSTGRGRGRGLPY
protein kinases (human kinome) (Homo sapiens, UniProt Q14289), sequence (Q14289 whole entry): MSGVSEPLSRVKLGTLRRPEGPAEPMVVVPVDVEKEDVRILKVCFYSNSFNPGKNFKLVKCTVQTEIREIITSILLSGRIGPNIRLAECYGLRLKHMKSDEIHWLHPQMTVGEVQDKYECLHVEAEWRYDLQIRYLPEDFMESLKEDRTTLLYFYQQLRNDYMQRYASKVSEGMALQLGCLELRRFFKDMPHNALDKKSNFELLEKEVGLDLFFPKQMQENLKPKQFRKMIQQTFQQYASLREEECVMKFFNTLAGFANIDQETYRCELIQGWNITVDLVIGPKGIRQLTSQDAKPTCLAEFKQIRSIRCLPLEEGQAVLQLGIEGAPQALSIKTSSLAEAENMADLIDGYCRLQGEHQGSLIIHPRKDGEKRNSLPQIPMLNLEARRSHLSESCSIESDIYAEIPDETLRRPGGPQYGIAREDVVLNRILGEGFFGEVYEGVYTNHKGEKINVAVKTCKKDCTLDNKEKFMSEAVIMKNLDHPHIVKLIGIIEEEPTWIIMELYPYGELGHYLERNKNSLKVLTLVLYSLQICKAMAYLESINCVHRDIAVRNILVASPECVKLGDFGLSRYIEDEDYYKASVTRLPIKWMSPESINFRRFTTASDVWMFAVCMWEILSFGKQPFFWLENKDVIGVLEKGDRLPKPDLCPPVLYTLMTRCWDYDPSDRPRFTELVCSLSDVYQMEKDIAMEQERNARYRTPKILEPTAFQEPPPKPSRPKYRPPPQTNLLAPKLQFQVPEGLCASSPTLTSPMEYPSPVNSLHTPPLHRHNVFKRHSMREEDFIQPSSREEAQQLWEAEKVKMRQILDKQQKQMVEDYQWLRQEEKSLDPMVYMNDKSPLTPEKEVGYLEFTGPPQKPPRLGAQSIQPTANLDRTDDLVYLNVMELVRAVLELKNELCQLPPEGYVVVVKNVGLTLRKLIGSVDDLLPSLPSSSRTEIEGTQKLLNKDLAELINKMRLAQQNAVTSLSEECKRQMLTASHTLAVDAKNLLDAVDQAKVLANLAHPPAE
protein kinases (human kinome) (Homo sapiens, UniProt Q9HBH9), sequence (Q9HBH9 whole entry): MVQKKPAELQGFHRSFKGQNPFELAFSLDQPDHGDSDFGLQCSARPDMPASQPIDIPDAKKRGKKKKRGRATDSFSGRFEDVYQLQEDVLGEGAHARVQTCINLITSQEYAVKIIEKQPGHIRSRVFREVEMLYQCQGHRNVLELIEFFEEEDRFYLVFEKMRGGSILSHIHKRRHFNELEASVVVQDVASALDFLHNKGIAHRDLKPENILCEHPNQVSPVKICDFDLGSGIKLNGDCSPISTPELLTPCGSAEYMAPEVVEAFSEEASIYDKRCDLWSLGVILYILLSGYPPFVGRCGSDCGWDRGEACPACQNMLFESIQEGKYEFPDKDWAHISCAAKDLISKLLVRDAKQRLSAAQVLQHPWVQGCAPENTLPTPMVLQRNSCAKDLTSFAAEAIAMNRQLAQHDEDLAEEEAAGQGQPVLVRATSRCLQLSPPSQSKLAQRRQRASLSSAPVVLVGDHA

For `CS(=O)(=O)Nc1cccc(-c2csc3cnc(Nc4ccc(N5CCN(CCCCCOc6cccc7c6C(=O)N(C6CCC(=O)NC6=O)C7=O)CC5)cc4)nc23)c1` (centres unmarked) [DB0614, N-(3-(2-((4-(4-(5-((2-(2,6-Dioxopiperidin-3-yl)-1,3-dioxoisoindolin-4-yl)oxy)pentyl)piperazin-1-yl)phenyl)amino)thieno[3,2-d]pyrimidin-7-yl)phenyl)methanesulfonamide], the logFC in experiment [1] is −1.425. In [1] (experiment wp045), the “logFC PTK2B” value is −1.425.
For the compound `Cc1ccc(NC(=O)c2cccc(C(F)(F)F)c2)cc1N1Cc2cnc(Nc3ccc(N4CCN(CCCOc5cccc6c5C(=O)N(C5CCC(=O)NC5=O)C6=O)CC4)nc3)nc2N(C)C1=O` (centres unmarked) [DB0662], the logFC is −0.3382 in experiment [2] (experiment wp168) and −0.4185 in experiment [3] (experiment wp168). Besides, the “logFC BUB1 (O43683)” value in experiment [2] (Experiment wp168) is listed as −0.3382. In addition, in experiment [3] (Experiment wp168), the “logFC MKNK2 (Q9HBH9-1)” value was −0.4185.
`Cc1ccc(NC(=O)c2cccc(C(F)(F)F)c2)cc1N1Cc2cnc(Nc3ccc(N4CCN(CCCCCCOc5cccc6c5C(=O)N(C5CCC(=O)NC5=O)C6=O)CC4)nc3)nc2N(C)C1=O` (centres unmarked) [DB0663]: the figures for the logFC in experiment [1] and in experiment [3] (experiment wp045) were −1.961 and −0.4798, respectively. Besides, the “logFC PTK2B” value in experiment [1] (experiment wp045) is on record as −1.961. In addition, the “logFC MKNK2 (Q9HBH9-1)” value in experiment [3] (Experiment wp045) is listed as −0.4798.
`Cc1ccc(NC(=O)c2cccc(C(F)(F)F)c2)cc1N1Cc2cnc(Nc3ccc(N4CCN(CCCCC(=O)N[C@H](C(=O)N5C[C@H](O)C[C@H]5C(=O)N[C@@H](C)c5ccc(-c6scnc6C)cc5)C(C)(C)C)CC4)nc3)nc2N(C)C1=O` [DB1113]: the “logFC STK35” value was −0.7606 in experiment [4] (Accession Q8TDR2, experiment wp168, direction down) and −0.7606 in experiment [4] (STK35 (Q8TDR2), experiment wp168).
In the case of `CNC(=O)c1ccccc1Nc1cc(Nc2ccc(N3CCN(CCOCCOCCNC(=O)CNc4cccc5c4C(=O)N(C4CCC(=O)NC4=O)C5=O)CC3)cc2OC)ncc1C(F)(F)F` (centres unmarked) [MFH.5.103.1], the logFC is −0.5098 in experiment [5] and −3.18 in [1]. The “logFC CDK7” value in [5] (experiment wp076) is −0.5098. For the same compound, the “logFC PTK2B” value in [1] (experiment wp076) is listed as −3.18.
In turn, `CCc1cnn2c(N(Cc3ccc(N)nc3)C(=O)CCOCCOCCOCCNC(=O)CNc3cccc4c3C(=O)N(C3CCC(=O)NC3=O)C4=O)cc(N3CCCC[C@H]3CCO)nc12` (some centres unmarked) [MFH.5.115.2] returned a logFC in experiment [2] (experiment wp076) of −0.5159. Moreover, the “logFC BUB1 (O43683)” value in experiment [2] (Experiment wp076) is on record as −0.5159.
Consider `O=C1CCC(N2C(=O)c3cccc(NCCCCCCCCN4CCC(NC(=O)c5[nH]ncc5NC(=O)c5c(Cl)cccc5Cl)CC4)c3C2=O)C(=O)N1` (centres unmarked) [MFH.5.126.1], for which, in [2] (experiment wp076), the logFC is −0.9248. Also, the “logFC BUB1 (O43683)” value in experiment [2] (Experiment wp076) is given as −0.9248. In experiment [6] (experiment wp076), the “logFC of CDK17” value was −0.5894. The “logFC CDK17 (Q00537)” value in experiment [6] (Experiment wp076) is listed as −0.5894. In addition, in experiment [7] (experiment wp076), the “logFC CDK13” value is on record as −0.4846 and the “logFC CDK13 (Q14004-1)” value was −0.4846.
With `CS(=O)(=O)Nc1cccc(-c2csc3cnc(Nc4ccc(N5CCN(CCOCCOCCOc6cccc7c6C(=O)N(C6CCC(=O)NC6=O)C7=O)CC5)cc4)nc23)c1` (centres unmarked) [RSS0628], in experiment [1], the logFC is recorded as −1.517. Besides, the “logFC PTK2B” value in experiment [1] (experiment wp045) is given as −1.517.
As to `Cn1c(=O)c(-c2c(Cl)cccc2Cl)cc2cnc(Nc3ccc(OCCNC(=O)CCCCCCNC(=O)COc4cccc5c4C(=O)N(C4CCC(=O)NC4=O)C5=O)cc3)nc21` (centres unmarked) [SB1.G.192.1], in experiment [8], the logFC is reported as −0.3388 and the “logFC PDK1” value is on record as −0.3388.
Consider `CC(C)S(=O)(=O)c1ccccc1Nc1nc(Nc2ccc(N3CCN(CCOCCNC(=O)CNc4cccc5c4C(=O)N(C4CCC(=O)NC4=O)C5=O)CC3)cc2)ncc1Cl` (centres unmarked) [SK-3-91], for which the BUB1 degradation result in [2] (MOLT-4 and MM.1S cell lines) is recorded as “degraded”.
In the case of `CC(C)S(=O)(=O)c1ccccc1Nc1nc(Nc2ccc(N3CCN(CCOCCNC(=O)CNc4ccc5c(c4)C(=O)N(C4CCC(=O)NC4=O)C5=O)CC3)cc2)ncc1Cl` (centres unmarked) [SK.3.93], in [5], the logFC is on record as −0.8057. Moreover, in experiment [5] (experiment wp016), the “logFC CDK7” value is listed as −0.8057. Moreover, in [9] (experiment wp016), the “logFC of CDK5” value is given as −0.9703. Moreover, the “logFC CDK5 (Q00535)” value in [9] (experiment wp016, direction of change down) is on record as −0.9703. For the same compound, in experiment [6] (experiment wp016), the “logFC of CDK17” value was −0.7103 and the “logFC CDK17 (Q00537)” value is −0.7103. In experiment [7] (experiment wp016), the “logFC CDK13” value is −0.5636 and the “logFC CDK13 (Q14004-1)” value is recorded as −0.5636. The logFC in experiment [1] is −3.269. For the same compound, the “logFC PTK2B” value in experiment [1] (experiment wp016) is −3.269. In experiment [10] (Accession Q9NYV4-1, experiment wp016), the “logFC CDK12” value is listed as −0.9555. Moreover, the “logFC CDK12” value in experiment [10] (CDK12 (Q9NYV4-1), experiment wp016) is recorded as −0.9555.
`CC(C)S(=O)(=O)c1ccccc1Nc1nc(Nc2ccc(N3CCN(CCOCCOCCC(=O)NCCNc4cccc5c4CN(C4CCC(=O)NC4=O)C5=O)CC3)cc2)ncc1Cl` (centres unmarked) [TL13.97]: the logFC in experiment [5] is recorded as −1.05. Further, the “logFC CDK7” value in experiment [5] (experiment wp137) was −1.05. Moreover, the “logFC CDK5 (Q00535)” value in experiment [9] (experiment wp137) was −1.114; in [9] (experiment wp137, direction of change down), −1.114. In addition, in experiment [7] (experiment wp137), the “logFC CDK13” value is recorded as −0.7359. The “logFC CDK13 (Q14004-1)” value in [7] (experiment wp137) is −0.7359.
`Cc1ccc(C(=O)Nc2ccc(CN3CCN(CCOCCOCCNC(=O)CNc4cccc5c4C(=O)N(C4CCC(=O)NC4=O)C5=O)CC3)c(C(F)(F)F)c2)cc1C#Cc1cnc2cccnn12` (centres unmarked) [TL13.150]: the “logFC of CDK5” value in experiment [9] (experiment wp081) is reported as −0.3786. Moreover, the “logFC CDK5 (Q00535)” value in experiment [9] (experiment wp081, direction of change down) is listed as −0.3786.
As to `NC(=O)c1c(F)cccc1Nc1nc(Nc2ccc(S(=O)(=O)NCCOCCOCCOCCOCCNc3cccc4c3C(=O)N(C3CCC(=O)NC3=O)C4=O)cc2)ncc1Br` (centres unmarked) [TMX.02.138], the logFC in experiment [5] is −0.5239; in experiment [1], −1.24. Moreover, the “logFC CDK7” value in experiment [5] (experiment wp146) was −0.5239. For the same compound, the “logFC CDK5 (Q00535)” value in [9] (experiment wp146) is on record as −3.29; in [9] (experiment wp146, direction of change down) it was −3.29. Moreover, in experiment [6] (experiment wp146), the “logFC of CDK17” value is reported as −1.361. Further, the “logFC CDK17 (Q00537)” value in [6] (experiment wp146) was −1.361. Also, the “logFC PTK2B” value in experiment [1] (experiment wp146) was −1.24. Moreover, the “logFC CDK12” value in experiment [10] (Accession Q9NYV4-1, experiment wp146) is recorded as −1.018; in experiment [10] (CDK12 (Q9NYV4-1), experiment wp146), −1.018.
In the case of `Nc1ncc(-c2ccc(S(=O)(=O)N(CCCNC(=O)CCOCCOCCOCCOCCOCCNc3cccc4c3C(=O)N(C3CCC(=O)NC3=O)C4=O)C3CC3)cc2)cc1-c1ccc2c(c1)CCNC2=O` (centres unmarked) [WH.10417.099], the “logFC STK35” value in [4] (Accession Q8TDR2, experiment wp056, direction down) is reported as −2.073; in experiment [4] (Accession Q8TDR2, experiment wp103, direction down), −1.239; in experiment [4] (Accession Q8TDR2, experiment wp107, direction down) it was −1.954; in experiment [4] (STK35 (Q8TDR2), experiment wp056), −2.073; in experiment [4] (STK35 (Q8TDR2), experiment wp103) it was −1.239; in experiment [4] (STK35 (Q8TDR2), experiment wp107), −1.954.
